Patent US5173504A, “Bacteriochlorophyll-a derivatives useful in photodynamic therapy” (Health Research, Inc., priority 1991, dated 1992)

Columns and labels:
[1] = Beems et al., Photochemistry and Photobiology (1987); cited from earlier work
[2] = uptake and clearance in liver (extraction, HPLC); assay type: in vivo, DBA/2 Ha Mice
Method: (§1) Uptake and clearance of bchla in tumor and liver were measured by extraction of the tumor or liver tissue with 1:1MeOH:CH2 Cl2, followed by HPLC analysis.

stability of bchla = assay type: physicochemical
Description: Bchla is readily obtained by extraction from bacterial sources, and is available commercially from Porphyrin Products, Logan, UT.

[3] = test system: tumors approximately 1 cm in depth; test: light penetration: necrotic depth in tumors; assay type: in vivo; settings: 20 mg/kg, irradiation after 1 hour, 270 J/cm^2 at 780 nm; histology the day following
Method: Comparison was made using bchla at 20 mg/kg with irradiation after 1 hour at 270 J/cm^2 at 780 nm, and DHE at 5 mg/kg after 1 hour at 270 J/cm^2 at 630 nm. Animals with tumors approximately 1 cm in depth were used in the comparison. Histological sections were obtained the day following treatment, fixed and stained.

[4] = uptake and clearance in tumor (extraction, HPLC); assay type: in vivo, DBA/2 Ha Mice
Method: as §1

[5] = cutaneous photosensitivity: response of the foot of the treated mice; assay type: in vivo; settings: FIG. 3
Method: One of the undesirable side effects of photodynamic therapy using certain compounds is cutaneous photosensitivity unrelated to the target biological substrate. Accordingly, the effect of the treatment on the photosensitivity of the foot of the treated mice was measured. The response of the foot was measured as erythema and/or edema (or loss of skin or further damage).

[6] = light absorption of bchla; assay type: physicochemical
Description: Bchla is essentially identical to the chlorophyll-a of higher plants except that ring B is in the dihydro form and the vinyl group in ring A is converted to an acetyl group. The wavelength absorption maximum of bchla is about 780 nm and the extinction coefficient in this region is quite high (E780= 75,000). This long wavelength absorption is advantageous because light penetrates tissues 2-3 times more effectively at a wavelength nearly 800 nm versus lower wavelengths, e.g., 630 nm.
Bacteriochlorophyll-a, obtained at >90% purity from Porphyrin Products (Logan, UT) was dissolved at a concentration of 5 mg/ml in Tween-80 (Sigma) by stirring for several hours or overnight. The resulting solution was mixed with 9 volumes of Hank's buffer solution with agitation until all of the detergent solution was dissolved. Any remaining particulate matter is removed by filtration and the concentration of the final solution is determined spectrophotometrically using a 1:100 dilution in distilled water (OD780= 87.3 for 1 mg/ml of concentrate). In general, if the initial solution of bchla is conducted carefully, the resulting formulation has a concentration of bchla of 0.5 mg/ml.

SMT-F tumors = test: tumor response to photodynamic treatment in mice transplanted with SMT-F tumors; assay type: in vivo, DBA2/HaD mice
Method: DBA2/HaD mice were transplanted with SMT-F tumors. When the subcutaneous tumors reached 4.5-5.5 mm in diameter, the mice, in groups of five, were injected intravenously with the bchla solution of Example 1 in doses of 5-30 mg/kg. At a time 1 hour-5 days later, the tumor, previously shaved and depiliated, plus a margin of 2-3 mm was exposed to radiation of a wavelength in the range 630-800 nm using a Spectraphysics argon dye laser with Exciton LDS751 dye, tunable over the 700-800 nm range or a diode laser--e.g., Spectra Diode emitting in the 750-850 nm range or a Xenon arc lamp filtered with an interference filter to pass 90% of the 700 nm light ±60 nm at dose rates of 75-150 mw/cm^2. When the Xenon system was used, mild hyperthermia resulted (42° C. at 160 mW/cm^2). It is not known whether this temperature rise acts synergistically with bchla as has been shown with HpD and its active fraction.
Tumor response is shown in the table of FIG. 1 for the seventh day after light treatment which indicates regression, and at a time point at least 30 days after light treatment, which would indicate cure, if there had been no regrowth.

**Q.** Which “water solubility compared to bacteriochlorophyll-a” value [1] does the source give for `CCC1c2cc3[nH]c4c(c3C)C(=O)C(C(=O)OC)c4c3nc(cc4[nH]c(cc(n2)C1C)c(C(C)=O)c4C)C(C)C3CCC(=O)O` (stereo not shown) [bacteriochlorin-a] here?
**A.** Its value is “enhanced water solubility”.

**Q.** Which “water solubility compared to bacteriochlorophyll-a” value [1] does the source give for `CCC1C2=Cc3c(C)c4c5[n]3[Mg][n]3c(c(C)c(C(C)=O)c3=CC(=N2)C1C)=CC1=NC(=C5C(C(=O)OC)C4=O)C(CCC(=O)O)C1C` (stereo not shown) [bacteriochloro-phyllin-a] here?
**A.** The value was “enhanced water solubility”.

**Q.** Which “time of partial conversion to bacteriopheophytin in liver” value [2] does the source give for `CCC1C2=Cc3c(C)c4c5[n]3[Mg][n]3c(c(C)c(C(C)=O)c3=CC(=N2)C1C)=CC1=NC(=C5C(C(=O)OC)C4=O)C(CCC(=O)OCC=C(C)CCCC(C)CCCC(C)CCCC(C)C)C1C` (stereo not shown) [bchla, Bacteriochlorophyll-a] here?
**A.** Its value is 2 h.

**Q.** And the oxidation stability (stability of bchla)?
**A.** The oxidation stability was “readily oxidized, especially in the presence of light”.

**Q.** What about the stability in vivo (stability of bchla; in vivo) of the same molecule?
**A.** The stability in vivo was “sufficiently stable in vivo to be an effective phototherapeutic agent”.

**Q.** What about the “loss of magnesium ion in dilute acid” value (stability of bchla; presence of dilute acid) of the same molecule?
**A.** Its value is “the magnesium ion is readily removed in the presence of dilute acid”.

**Q.** What about the necrotic depth [3] of the same molecule?
**A.** The necrotic depth was “approximately 9 mm”.

**Q.** And the “composition of material in tumor” value ([4]; 24 hours after injection)?
**A.** Its value is “demetallized but still contains phytyl”.

**Q.** What about the “composition of material in tumor” value ([4]; 48 hours after injection) of the same molecule?
**A.** Its value is “mainly material without phytyl and without Mg”.

**Q.** And the “time of partial conversion to bacteriopheophytin in tumor” value ([4]; tumor)?
**A.** The value was ≥ 24 h.

**Q.** What about the “sensitivity of the tumor and the skin of the foot over time” value [5] of the same molecule?
**A.** The value was “the sensitivity of the tumor and the skin of the foot declined concomitantly”.

**Q.** And the wavelength absorption maximum [6]?
**A.** The wavelength absorption maximum was “about 780 nm”.

**Q.** And the “extinction coefficient (E780)” value ([6]; 780 nm)?
**A.** Its value is 75,000.

**Q.** What about the OD780 ([6]; for 1 mg/ml of concentrate, Tween-80/Hank's buffer formulation, measured at 1:100 dilution in distilled water) of the same molecule?
**A.** The OD780 was 87.3.

**Q.** And the tumor response (SMT-F tumors; 5 mg/kg i.v., irradiated after 2 hours, 670-790 nm range)?
**A.** Its tumor response is “good response”.

**Q.** What about the tumor response (SMT-F tumors; 10 mg/kg i.v., irradiated 24 hours after injection, 680-780 nm) of the same molecule?
**A.** Its tumor response is “good response”.
